In this assay the test system is H9c2 cardiomyocytes, H2O2 protection, ATPLite viability, 2 h. The experiment in a line: H2O2-induced H9c2 cell death suppression – ATPLite luminescence, set 2, dose response (AID 602211).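 Also: potency is for protection so actives keep ATP signal up against peroxide killing.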

Calls of active or inactive are those of the source.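 The calls were made as follows: active = mean IC50 at or below 10 µM; inactive = the rest.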

One may read the IC50 as the concentration that gives 50% inhibition. Regarding `COc1cc(C(=O)Nc2ccc(NC(=O)c3ccco3)nc2)cc(OC)c1OC`, the IC50 was 25.7 µM (inactive). Consider `O=C(N/N=C\c1ccccn1)c1cccc(C(=O)N/N=C\c2ccccn2)n1`, for which the IC50 is 2.07 µM. Take `C#CCOc1nc(Nc2cccc([N+](=O)[O-])c2)nc(OCC#C)n1`: the IC50 is > 79 µM (inactive). Under `O=C(CN1CCN(Cc2ccccc2)CC1)Nc1ccc([N+](=O)[O-])cc1C(=O)Nc1ccccc1F` stands 4.75 µM; under `COc1cc(C(=O)N/N=C/c2ccc(OC(=O)c3ccccc3Cl)cc2)ccc1O`, > 79 µM (inactive); under `COc1cc(Nc2nc3ccccc3n3nnnc23)cc(OC)c1OC`, 1.38 µM. `O=C(CNC(=O)c1nc[nH]c1C(=O)NCC(=O)OCc1ccccc1)OCc1ccccc1`: the IC50 was 0.38 µM.

Consider `Cc1nn(C)cc1C(C(=O)NC1CCCCC1)N(C(=O)Cc1cccs1)c1ccc(Cl)cc1` (configuration not stated), for which the IC50 is 8.18 µM.

Take `CCOc1ncccc1C(=O)Nc1cccc(-c2nc3cccnc3s2)c1`: the IC50 is 3.51 µM.

As to `CCOC(=O)C1=C(C)N=c2s/c(=C\c3ccncc3)c(=O)n2C1c1ccc2c(c1)OCO2` (configuration not stated), the IC50 is 8.34 µM. For `COc1ccccc1NC(=O)COc1ccc(/C=N/NC(=O)c2cccnc2)cc1` the value was 9.9 µM; for `Cc1nn(-c2ccccc2)c(C)c1/C=N/NC(=O)c1cc(C(C)(C)C)[nH]n1`, 26.5 µM (inactive). On to `Nc1nonc1-n1nnc(C(=O)N/N=C/c2ccccn2)c1CNc1ccccc1`, for which the IC50 was 16.3 µM (inactive).

As to `CC(=O)Nc1cc(-c2ccccc2)cn2c(-c3cccc(C(C)=O)c3)cnc12`, the IC50 was 8.67 µM. For `Nc1c(C(=O)NC2CC2)c2nc3ccccc3nc2n1-c1ccc2c(c1)OCO2`, the IC50 is 4.49 µM. With `Cc1ccc2nsnc2c1S(=O)(=O)N(Cc1ccco1)Cc1cc2cccc(C)c2[nH]c1=O`, the IC50 is 13.2 µM (inactive). On to `CCN(C[C@H]1N[C@@](CC)(C(=O)OC)[C@H]2C(=O)N(Cc3ccccc3)C(=O)[C@@H]12)C(=O)c1ccc(C(C)(C)C)cc1`, for which the IC50 was > 79 µM (inactive). `COc1cccc(Nc2nc3ccccc3n3nnnc23)c1`: the IC50 was > 79 µM (inactive). Under `COc1cc(-c2cc(NC=O)c3ncc(-c4ccccc4)n3c2)cc(OC)c1OC` stands > 79 µM (inactive); under `COc1ccc(-c2oc3c(OC)c(OC)c(OC)c(O)c3c(=O)c2OC)cc1OC`, 12.1 µM (inactive); under `COC(=O)c1ccc(N)c(N=CC2=C(O)CC(C)(C)CC2=O)c1`, 7.63 µM. Turning to `NS(=O)(=O)c1ccc(CCNC(=O)c2ccc(C#CC3(O)CCCCC3)cc2)cc1`, the IC50 is > 79 µM (inactive). For `O=C(c1cc(=O)[nH]c2ccccc12)N1CCN(S(=O)(=O)c2ccc(Cl)cc2)CC1` the value was 1.1 µM. For `Cc1cc(C)c(S(=O)(=O)N2CCN(C(=O)c3cc(=O)[nH]c4ccccc34)CC2)c(C)c1`, the IC50 was 2.94 µM. As to `Cc1ncc(CO)c2c1Oc1nc(-c3ccccc3)nc(SCC(=O)N3CCCCC3)c1C2`, the IC50 is > 79 µM (inactive). With `CC(=O)Nc1cccc(-c2cc(NC(C)=O)c3ncc(-c4ccccc4)n3c2)c1`, the IC50 was 13.7 µM (inactive). As for `CS(=O)(=O)c1ccc(-c2cnc3c(NC=O)cc(-c4ccsc4)cn23)cc1`, the IC50 is 12.5 µM (inactive). `COc1ccc(N(CC(=O)Nc2cccc(C(C)=O)c2)S(=O)(=O)c2ccc(NC(C)=O)cc2)cc1`: the concentration for half-maximal inhibition (IC50) was 3.03 µM. For `COc1ccc(COc2cc(-c3cccc(OC)c3)nc3ccc(NC(=O)c4cccnc4)cc23)cc1` the value was 2.36 µM; for `COc1ccccc1NC(=O)COc1ccc(C(=O)OCC(=O)NC(C)(C)C)cc1OC`, 13.7 µM (inactive). Under `CNC(=O)c1ccc(-c2sc3nc(N4CCOCC4)c4c(c3c2N)CC(C)(C)OC4)o1` stands 6.13 µM. With `CCN(CC)C(=O)c1[nH]cnc1C(=O)NCC(=O)OCc1ccccc1`, the IC50 is 6.88 µM. Under `COc1ccc(N(CC(=O)N/N=C/c2cccs2)S(=O)(=O)c2ccc(OC)c(OC)c2)cc1` stands 10.3 µM (inactive).

For `O=C(Nc1cccc(/C=C/c2ccccn2)c1)c1ccc(-n2cncn2)cc1`, the concentration for half-maximal inhibition (IC50) is 3.13 µM. For `CCCN1C(=O)c2cc(C(=O)Nc3cccc(C(C)=O)c3)ccc2C1Nc1cccc(C(C)=O)c1` (configuration not stated) the value was > 79 µM (inactive); for `COc1ccc(C(=O)COC(=O)Cn2[nH]c(=O)c3ccccc3c2=O)c(OC)c1`, 27.2 µM (inactive); for `COc1ccc(C(=O)Nc2cccc(NC(=O)c3ccc(OC)c(OC)c3)n2)cc1OC`, 1.49 µM.

For `C=CC[C@@H](CC(=O)NCCO)C(=O)NC[C@H](OC(=O)[C@@H](CC=C)Cc1ccc(F)cc1)c1ccccc1`, the IC50 was 3.38 µM. Under `COc1nc(N/N=C/c2cc3c(cc2Br)OCO3)nc(N2CCOCC2)n1` stands 11.9 µM (inactive); under `COc1cccc(-c2cnc3c(NC(C)=O)cc(-c4cccc(NS(C)(=O)=O)c4)cn23)c1`, 7.84 µM; under `O=C(CCCN1C(=O)c2cccc3cccc(c23)C1=O)N1CCN(c2ccccc2O)CC1`, 4.54 µM. Under `C=CC[C@@H](CC(=O)N[C@H](CO)Cc1ccccc1)C(=O)N[C@@H](COC(=O)[C@@H](CC=C)CC(=O)OC(C)(C)C)Cc1ccccc1` stands 12.3 µM (inactive); under `O=C(CSc1nnc(Cc2cccs2)n1CCc1ccccc1)N1CCCc2ccccc21`, > 79 µM (inactive); under `CCOc1ccc2ccccc2c1C(=O)N[C@@H]1C(=O)N2[C@@H]1SC(C)(C)[C@@H]2C(=O)O`, 24.4 µM (inactive). As to `O=C(N/N=C/c1ccc2c(c1)OCO2)c1ccc(NC(=O)c2ccccc2Cl)cc1`, the IC50 is 8.05 µM. On to `Cc1ccc(NC(=O)c2cc(=O)c3ccccc3o2)cc1S(=O)(=O)N1CCOCC1`, for which the IC50 was 5.15 µM.

For `C[C@@H]1CN([C@H](C)CO)S(=O)(=O)c2ccc(C#Cc3ccccc3F)cc2O[C@H]1CN(C)C(=O)c1ccc2c(c1)OCO2`, the IC50 is > 79 µM (inactive). For `COc1ccc(C(C(=O)NCc2ccccc2)N(Cc2ccco2)C(=O)c2snc(C(N)=O)c2N)cc1` (configuration not stated) the value was 3.63 µM; for `COc1ccc(/C=N/NC(=O)c2cc(-c3ccc4c(c3)OCO4)n[nH]2)cc1OC`, 7.49 µM; for `Cc1c(C(=O)NCC2COc3ccccc3O2)oc2ccc(S(=O)(=O)N3CCOCC3)cc12` (configuration not stated), > 79 µM (inactive). Under `Cc1ccc(C)c(NC(=O)C(Sc2nc3ccccc3c(=O)n2CC(C)C)c2ccccc2)c1` (configuration not stated) stands 0.35 µM; under `COc1cc(CN2C[C@@H](CO)O[C@@H](n3cnc4c(Nc5ccccc5)ncnc43)C2)cc(OC)c1OC`, 10.6 µM (inactive). For `COc1cccc(-c2cnc3c(NC=O)cc(-c4ccc(O)c(OC)c4)cn23)c1` the value was 5.89 µM. With `Cn1c(=O)n(CCc2ccccc2)c(=O)c2c1nc1n2CCN1Cc1ccco1`, the IC50 was > 79 µM (inactive). Under `NC(=O)COc1ccc2oc(=O)cc(-c3cc4ccccc4o3)c2c1` stands 9.93 µM. Take `COc1cccc(-c2cnc3c(NC(C)=O)cc(-c4cc(OC)c(OC)c(OC)c4)cn23)c1`: the IC50 was 3.27 µM. As for `CC(C)(C)C(=O)Nc1cccc(-c2nnc(-c3cccc(NC(=O)C(C)(C)C)c3)o2)c1`, the IC50 was 4.79 µM. For `CN(CC1COc2ccccc2O1)c1nc(-c2cccnc2)nc2ccccc12` (configuration not stated), the IC50 is 25.9 µM (inactive).

On to `COc1ccc(CN(C)C(=O)C(Cc2ccccc2)NC(=O)c2ccccc2)cc1F` (configuration not stated), for which the IC50 is 2.67 µM. Under `COc1cc(C(=O)Nc2cc3c(cc2N2CCCCC2)n(C)c(=O)n3C)cc(OC)c1OC` stands 11.2 µM (inactive); under `COc1ccccc1CN(C(=O)CNC(=O)c1ccco1)C(C(=O)NCC1CCCO1)c1ccccc1` (configuration not stated), 9.67 µM.

Regarding `CC/C(C)=N\N=C\c1c(O)n(CC)c2cc(C3=NNC(=O)CC3)ccc12`, the IC50 was 16.6 µM (inactive). Under `Cc1nc(N2CCN(c3ccccn3)CC2)c2c(C)c(C(=O)Nc3ccccc3F)sc2n1` stands 4.04 µM.

Turning to `CC(=O)c1cccc(NC(=O)Nc2ccc3c(c2)N(C)C(=O)CS3)c1`, the half-maximal inhibitory concentration (IC50) was 3.53 µM. For `Cn1c(=O)n(CCc2ccccc2)c(=O)c2c1nc1n2CCCN1Cc1ccccc1`, the IC50 was > 79 µM (inactive). Under `COc1cc(/C=N/NC(=O)c2cccnc2)ccc1OS(=O)(=O)c1cc(C)ccc1C` stands > 79 µM (inactive); under `N#Cc1ccccc1S(=O)(=O)N1CCN(c2nc(-c3cccnc3)nc3ccccc23)CC1`, > 79 µM (inactive). For `COc1cc2c(C#CCCO)c(-c3ccsc3)oc(=O)c2cc1OC` the value was 2.04 µM; for `Cc1c(/C=N/NC(=O)c2ccc(O)cc2)c2ccccn2c1C(=O)c1ccc(F)cc1`, 5.2 µM. For `COC(=O)c1cc(C(=O)OCC(=O)N2c3ccccc3NC(=O)C2(C)C)cc([N+](=O)[O-])c1` the value was 6.28 µM; for `CCOc1ccc(-n2cc(-c3ccccc3)c3c(N4CCOCC4)ncnc32)cc1`, 6.61 µM. Consider `COc1ccc(/C=C/C(=O)c2ccccc2O)cc1CN1CCOCC1`, for which the IC50 was 7.14 µM. Under `CCOC(=O)c1c2c3c(cccc3n(C)c1=O)C(=O)c1ccccc1-2` stands 10.1 µM (inactive); under `CCn1c(SCC(=O)Nc2ccccc2N2CCCCC2)nc2c1c(=O)n(C)c(=O)n2C`, > 79 µM (inactive). For `CCC(C)N1C(=O)S/C(=C/c2ccc3c(c2)n(C)c(=O)n3C)C1=O` (configuration not stated) the value was > 79 µM (inactive); for `O=C1OCCN1C(=O)[C@H]1[C@H](c2ccc([N+](=O)[O-])cc2)C(c2ccc(F)cc2)=NN1c1ccc(Br)cc1`, 3.09 µM. As to `C=CCn1cnc2c(c1=O)c1nc3ccccc3nc1n2/N=C/c1cc(OC)c(OC)c(OC)c1`, the concentration for half-maximal inhibition (IC50) was 1.09 µM. On to `COCCn1nnnc1CN(CCc1ccccc1)Cc1cc2cc(OC)ccc2[nH]c1=O`, for which the IC50 is 5.12 µM. Take `COc1cccc(C(=O)CSc2nnc(-c3cc(OC)c(OC)c(OC)c3)o2)c1`: the IC50 is > 79 µM (inactive). On to `O=C(N/N=C/c1ccc(-c2cccc([N+](=O)[O-])c2)o1)c1ccc([N+](=O)[O-])cc1`, for which the IC50 was 7 µM.

`COc1ccc(-c2cc(NC=O)c3ncc(-c4ccc(C(C)=O)cc4)n3c2)cn1`: the IC50 is 4.52 µM. For `COC(=O)c1ccc(C(C(=O)NCc2ccccc2)N(Cc2cccs2)C(=O)c2cnccn2)cc1` (configuration not stated) the value was 5.53 µM.

The record behind these values is PubChem BioAssay AID602211 (Sanford-Burnham Center for Chemical Genomics, 2012).
